Where a name gives a salt, the structure may show the parent alone.
Assay: Release of other medicinal substances from the same preparation
Type: physicochemical
Conditions: in 1 hour

Row | SMILES | release from the same preparation
1 | CN/C(=N/CCSCc1nc[nH]c1C)NC#N [cimetidine hydrochloride] | 90%
2 | CC(=O)Nc1ccc(O)cc1 [paracetamol] | 90%

From patent publication US5681588A, “Delayed release microtablet of β-phenylpropiophenone derivatives” (priority 1993, dated 1997)
